Laboratory results published in patent publication US10844066B2, “2-amino-N-[7-methoxy-2, 3-dihydroimidazo-[1,2-c] quinazolin-5-yl] pyrimidine-5-carboxamides” (Bayer Pharma Aktiengesellschaft, priority 2016, dated 2020).

Tests used:
[1] = target: T1, human p110α subunit of PI3K (PI3Kα) (Homo sapiens, UniProt P42336); assay: Solid-Phase Lipid Kinase p110α assay; type: biochemical; settings: recombinant truncated (ΔN 1-108) p110α, 7.5 ng/well; final 10 μM ATP; RT 2 hours
T1 construct: His6 (N); made in house; host or cells: S. frugiperda 9 (Sf9) insect cells
T1 sequence (P42336 109-1068): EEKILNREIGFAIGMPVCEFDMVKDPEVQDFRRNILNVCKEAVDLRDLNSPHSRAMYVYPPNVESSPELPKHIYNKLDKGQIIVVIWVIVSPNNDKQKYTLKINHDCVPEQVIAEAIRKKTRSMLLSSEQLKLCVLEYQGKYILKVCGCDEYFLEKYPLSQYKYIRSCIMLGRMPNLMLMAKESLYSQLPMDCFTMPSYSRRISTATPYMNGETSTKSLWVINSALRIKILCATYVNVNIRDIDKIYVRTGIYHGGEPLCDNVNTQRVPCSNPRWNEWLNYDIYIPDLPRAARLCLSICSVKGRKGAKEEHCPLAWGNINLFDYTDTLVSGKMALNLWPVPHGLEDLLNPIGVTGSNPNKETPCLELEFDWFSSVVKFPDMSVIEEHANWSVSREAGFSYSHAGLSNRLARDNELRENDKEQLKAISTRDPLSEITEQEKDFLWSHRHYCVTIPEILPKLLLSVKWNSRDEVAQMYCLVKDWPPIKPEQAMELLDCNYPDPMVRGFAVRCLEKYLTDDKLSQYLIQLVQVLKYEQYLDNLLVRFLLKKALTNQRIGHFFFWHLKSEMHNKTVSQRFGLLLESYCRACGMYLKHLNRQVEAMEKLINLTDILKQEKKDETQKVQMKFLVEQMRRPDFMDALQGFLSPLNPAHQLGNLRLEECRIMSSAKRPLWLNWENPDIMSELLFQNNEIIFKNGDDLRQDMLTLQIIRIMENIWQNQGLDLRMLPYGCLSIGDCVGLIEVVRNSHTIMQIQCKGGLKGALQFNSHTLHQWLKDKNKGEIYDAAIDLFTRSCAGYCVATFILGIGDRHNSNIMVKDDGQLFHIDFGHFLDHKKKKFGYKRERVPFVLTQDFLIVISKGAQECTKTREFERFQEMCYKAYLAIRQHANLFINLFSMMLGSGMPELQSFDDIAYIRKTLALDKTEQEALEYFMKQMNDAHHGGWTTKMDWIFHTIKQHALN
Excerpt: [Determination of IC50 Values of Compounds in Kinase Assay of PI3Kα]
Phosphatidylinositol (Ptdlns) and phosphatidylserine (PtdSer) were purchased from DOOSAN SERDARY RESEARCH LABORATORIES (Toronto, Canada). Recombinant truncated forms (ΔN 1-108) of the human p110α and p110β subunits of PI3K with N-terminal His6-Tags were expressed in S. frugiperda 9 insect cells. Recombinant human PI3Kγ (full length human PI3K p1107 fused with a His6-tag at the C-terminus expressed in S. frugiperda 9 insect cells) was obtained from ALEXIS BIOCHEMICALS (#201-055-C010; San Diego, Calif.). [γ^33P]ATP and unlabeled ATP were purchased from AMERSHAM PHARMACIA BIOTECH (Buckinghamshire, UK) and ROCHE DIAGNOSTICS (Mannheim, Germany), respectively. Scintillation cocktails Ultima Gold™ scintillation cocktail were purchased from PERKIN ELMER. Maxisorp™ plates were purchased from NALGE NUNC INTERNATIONAL K.K. (Tokyo, Japan). All other chemicals not further specified were from WAKO PURE CHEMICALS (Osaka, Japan). […]
(§1) The radioactivity incorporated into the immobilized PI substrate was determined with a BetaPlate Liquid Scintillation Counter (PerkinElmer).
(§2) The inhibition percent at each concentration of compound was calculated, and IC50 values were determined from the inhibition of curve.

[2] = target: T2, human p110β subunit of PI3K (PI3Kβ) (Homo sapiens, UniProt P42338); assay: Solid-Phase Lipid Kinase p110β assay; type: biochemical; settings: recombinant truncated (ΔN 1-108) p110β, 7.5 ng/well; otherwise as PI3Kα assay
T2 construct: His6 (N); made in house; host or cells: S. frugiperda 9 (Sf9) insect cells
T2 sequence (P42338 109-1070): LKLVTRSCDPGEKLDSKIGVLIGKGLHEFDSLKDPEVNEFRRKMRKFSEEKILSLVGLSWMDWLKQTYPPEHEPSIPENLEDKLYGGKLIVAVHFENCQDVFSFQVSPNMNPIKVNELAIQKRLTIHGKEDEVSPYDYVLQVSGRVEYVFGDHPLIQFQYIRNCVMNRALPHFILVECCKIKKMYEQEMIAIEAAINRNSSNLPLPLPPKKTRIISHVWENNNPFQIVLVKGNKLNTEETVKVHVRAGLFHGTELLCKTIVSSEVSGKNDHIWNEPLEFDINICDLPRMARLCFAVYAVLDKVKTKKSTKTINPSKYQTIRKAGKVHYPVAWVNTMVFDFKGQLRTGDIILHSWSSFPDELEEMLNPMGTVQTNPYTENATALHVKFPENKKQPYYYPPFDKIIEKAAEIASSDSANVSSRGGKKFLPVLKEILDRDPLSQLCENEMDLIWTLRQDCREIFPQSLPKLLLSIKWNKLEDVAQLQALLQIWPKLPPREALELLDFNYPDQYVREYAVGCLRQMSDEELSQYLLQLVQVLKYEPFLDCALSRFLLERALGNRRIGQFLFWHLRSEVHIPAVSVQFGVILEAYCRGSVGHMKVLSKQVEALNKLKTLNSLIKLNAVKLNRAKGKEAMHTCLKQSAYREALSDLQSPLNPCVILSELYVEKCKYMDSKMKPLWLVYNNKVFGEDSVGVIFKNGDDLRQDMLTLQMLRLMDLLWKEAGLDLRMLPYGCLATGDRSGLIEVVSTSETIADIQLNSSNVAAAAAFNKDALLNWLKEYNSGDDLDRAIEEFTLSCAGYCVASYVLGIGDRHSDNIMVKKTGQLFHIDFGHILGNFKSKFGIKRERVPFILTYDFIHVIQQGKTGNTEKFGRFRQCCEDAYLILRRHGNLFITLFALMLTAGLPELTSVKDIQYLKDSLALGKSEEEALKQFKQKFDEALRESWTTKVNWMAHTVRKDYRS
Procedure: To assess inhibition of PI3Kα by compounds, the Maxisorp™ plates were coated with 50 μL/well of a solution containing 50 μg/ml Ptdlns and 50 μg/ml PtdSer dissolved in chloroform:ethanol (3:7). The plates were subsequently air-dried by incubation for at least 2 hours in a fume hood. The reaction was set up by mixing 25 μL/well of assay buffer 2× (100 mM MOPSO/NaOH, 0.2 M NaCl, pH 7.0, 8 mM MgCl2, 2 mg/mL BSA (fatty acid-free)), and 7.5 ng/well PI3Kα in the lipid pre-coated plate. 10× test compounds were added in 2% DMSO. The reaction was started by adding 5 μL/well of a 40 μM ATP mix (final 10 μM ATP; 20 μCi/ml[γ^33P]ATP). After incubation at RT for 2 hours, the reaction was terminated by adding 5 μl/well stop solution (25 mM EDTA, pH 8.0). The plate was then washed twice with Tris-buffered saline (TBS, pH 7.4). Ultima Gold™ (PERKINELMER) scintillation mix was added at 25 μL/well.
as §1, §2
A recombinant truncated form (ΔN 1-108) of the human p110β or […] subunit of PI3K with an N-terminal His6-Tag was expressed in S. frugiperda 9 insect cells. […]

Row | Structure (SMILES) | IC50 [1] [nM] | IC50 [2] [nM]
1 | COc1c(OCCCN2CCOCC2=O)ccc2c1N=C(NC(=O)c1cnc(N)nc1)N1CCN=C21 [drawing 15, 2-amino-N-{7-methoxy-8-[3-(3-oxomorpholin-4-yl)propoxy]-2,3-dihydroimidazo[1,2-c]quinazolin-5-yl}pyrimidine-5-carboxamide] | 0.7 | –
2 | COc1c(OCCCN2CCOCC2=O)ccc2c1N=C(NC(=O)c1cnc(N)nc1)N1CCN=C21 [drawing 16, 2-amino-N-{7-methoxy-8-[3-(3-oxomorpholin-4-yl)propoxy]-2,3-dihydroimidazo[1,2-c]quinazolin-5-yl}pyrimidine-5-carboxamide] | – | 13
